The record followed here is patent publication US20100240604A1, “PROTECTED NUCLEOTIDE ANALOGS” (Alios BioPharma, Inc., priority 2009, published 2010).

The test system of series [1] is HCV RNA-replicating cell line, AVA5 (genotype 1b, subgenomic replicon). Nature of the series: HCV replicon assay: intracellular HCV RNA levels by blot hybridization. It is filed as cell-based, HCV genotype 1b. The settings on record: for EC50: 2-fold depression of HCV RNA relative to untreated cultures; for EC50 / EC90: normalized to β-actin RNA, daily treatment for three days, assessed at 72 hours; for EC90: 10-fold depression of HCV RNA relative to untreated cultures; for Antiviral activity (in words): results in Table 1. As to the method:
(§1) Antiviral activity of the test compounds was assessed (Okuse, et al., Antivir. Res. (2005) 65:23) in the stably HCV RNA-replicating cell line, AVA5 (genotype 1b, subgenomic replicon, Blight, et al., Sci. (2000) 290:1972). Compounds were added to dividing cultures daily for three days. Cultures generally start the assay at 30-50% confluence and reach confluence during the last day of treatment. Intracellular HCV RNA levels and cytotoxicity were assessed 72 hours after treatment.
(§2) Quadruplicate cultures for HCV RNA levels and cytoxicity (on 96-well plates) were used. A total of 12 untreated control cultures, and triplicate cultures treated with α-interferon (concentrations of: 10 IU/mL, 3.3 IU/mL, 1.1 IU/mL and 0.37 IU/mL) and 2′C-Me-C (concentrations of: 30 μM, 10 μM, 3.3 μM and 1.1 μM) served as assay controls.
(§3) Intracellular HCV RNA levels were measured using a conventional blot hybridization method, in which HCV RNA levels are normalized to the levels of β-actin RNA in each individual culture (Okuse, et al., Antivir. Res. (2005) 65:23). Cytotoxicity was measured using an established neutral red dye uptake assay (Korba and Gerin, Antivir. Res. (1992) 19:55; Okuse, et al., Antivir. Res. (2005) 65:23). HCV RNA levels in the treated cultures are expressed as a percentage of the mean levels of RNA detected in untreated cultures. The absorbance of the internalized dye at […] (A510) was used for quantitative analysis.
(§4) Compounds were dissolved in 100% tissue culture grade DMSO (Sigma, Inc.) at 10 mM. Aliquots of test compounds sufficient for one daily treatment were made in individual tubes and all material was stored at −20° C. For the test, the compounds were suspended into culture medium at room temperature, and immediately added to the cell cultures. Compounds were analyzed separately in two groups with separate assay controls. […]
(§5) Values presented (±standard deviations [S.D.]) were calculated by linear regression analysis using data combined from all treated cultures. S.D. was calculated using the standard error of regression generated from the linear regression analyses (QuattroPro™). EC50 and EC90, drug concentrations at which a 2-fold, or a 10-fold depression of HCV RNA (relative to the average levels in untreated cultures), respectively, were observed; CC50, drug concentrations at which a 2-fold depression of neutral red dye uptake (relative to the average levels in untreated cultures) were observed.
A general note: Replicon systems follow genome replication, usually without infectious particles.

Series [2] in a line: Cytotoxicity by neutral red dye uptake assay in the HCV replicon cultures. It is filed as cell-based. The settings on record: human; 2-fold depression of neutral red dye uptake relative to untreated cultures; daily treatment for three days, assessed at 72 hours. As to the method:
as §1, §2, §3, §4, §5

A further series concerns AVA5 cell line. The series is described as above. It is filed as cell-based. To be noted: 2-fold depression of neutral red dye uptake relative to untreated cultures; daily treatment for three days, assessed at 72 hours. As to the method:
as §1, §2, §3, §4, §5

Where only a bound is given, the exact number is not on record here.

What is called EC50 is the concentration needed to bring the measured effect to its halfway point. A lower EC50 goes with a more potent agent. The EC90 is the point of the concentration-response curve where the effect stands at 90%. A higher EC90 goes with a need for much substance. Broadly, the CC50 is the concentration at which the toxic effect on the cells reaches its halfway point. In series [1] (Hepatitis C virus, Ava5), `CCOC(=O)C(COC(C)=O)(COP(=O)(OC[C@H]1O[C@@H](n2cnc(C(N)=O)n2)C(O)C1O)OCC(COC(C)=O)(C(=O)OCC)C(=O)OCC)C(=O)OCC` (stereo partly drawn) [Compound 11, Ribavirin 5′-bis[3-acetyloxy-2,2-bis(ethoxycarbonyl)propyl]phosphate] showed an EC50 of 1.6 ± 0.2 µM and a concentration for an effect of 90% (EC90) of 4.4 ± 0.4 µM. Moreover, in series [1], the “Antiviral activity (in words)” value is on record as “showed activity”. The same compound displayed a CC50 at 72 h in series [2] of 9.7 ± 0.2 µM.
Take `C[C@@]1(O)[C@H](O)[C@@H](CO)O[C@H]1n1ccc(N)nc1=O` [Compound 12a, 2′-β-methylcytidine, reference compound]: in series [1], a half-maximal effect (EC50) was put at 1.6 µM and the EC90 was determined as 5.9 µM. This compound came in with a CC50 in the series with AVA5 cell line above 100 µM.
For the compound `CCOC(=O)C(COC(C)=O)(COP(=O)(N[C@@H](C)C(=O)OC)OC[C@H]1O[C@@H](n2cnc(C(N)=O)n2)[C@H](O)[C@@H]1O)C(=O)OCC` (stereo partly drawn) [Compound 10], in series [1], the EC50 turned out to be 8.7 µM, the 90% effect concentration (EC90) was determined as 54 µM and the “Antiviral activity (in words)” value is “showed activity”. In the series on AVA5 cell line, this compound returned a half-maximal cytotoxic concentration (CC50) above 100 µM.
Take `COC(=O)[C@H](C)NP(=O)(OC[C@H]1O[C@@H](n2cnc(C(N)=O)n2)[C@@H](O)C1O)Oc1ccccc1` (stereo partly drawn) [Compound 9]: in series [1] (Hepatitis C virus, Ava5), the EC50 was above 100 µM and the concentration for an effect of 90% (EC90) is above 100 µM. Also, in series [1], the “Antiviral activity (in words)” value was “inactive”. For the same compound, the CC50 at 72 h in series [2] is above 100 µM.
In series [1], `COC(=O)[C@H](C)NP(=O)(OC[C@H]1O[C@@H](n2ccc(N)nc2=O)[C@H](OC)[C@@H]1O)Oc1ccccc1` (stereo partly drawn) [Compound 13, 2′-O-Methylcytidine 5′-[O-phenyl-N-(S-2-methoxy-1-methyl-2-oxoethyl)]phosphoramidate] displayed an EC50 above 100 µM and an EC90 above 100 µM. Further, the CC50 with AVA5 cell line is above 100 µM.
